Test results taken from publication PMC10410440, “Preclinical PK investigation of a novel IDO1/TDO dual inhibitor—SHR9146 in mouse plasma and tissues by LC-MS/MS” (Frontiers in Oncology, 2023).
Where “and” joins values, the source holds several entries; their conditions need not be identical. Equal entries are not always repeated. Where two headings read alike, the source gives them in different places.

Assay: Tissue distribution of SHR9146 in mice after oral gavage of 40 mg/kg
Type: in vivo, ICR mice
Details: 40 mg/kg, 40 mg/kg oral gavage; for concentration at 1 h / concentration at 3 h / concentration at 6 h / concentration at 24 h: female, ICR, mouse, po
Procedure: ICR mice with body weight 16–26 g were supplied by Shanghai Lingchang Biotechnology Co., Ltd. (animal breeding license number SCXK (Shanghai) 2013-0018) and housed at Shanghai Institute of Materia Medica, Chinese Academy of Sciences [animal use license number SYXK (Shanghai) 2015-0027]. The mice used in this study were fasted overnight for 12 h but had free access to water. Food was supplied 4 h post-dose. All experiments in this study were conducted in accordance with the Guidelines for the Care and Use of Laboratory Animals of Shanghai Institute of Materia Medica, Chinese Academy of Sciences.
Another set of 30 mice were randomly assigned into five groups with equal numbers, males and females, for tissue distribution study with oral gavage at a single dose of 40 mg/kg at predetermined different time points: pre-dose and post dose at 1, 3, 6, and 24 h, respectively. The whole brain, heart, liver, spleen, lung, kidney, bladder, pancreas, testis, ovary, uterus, stomach, small intestine, adrenal gland, skin, skeletal muscle, thyroid gland, and abdominal fat tissues as well as the whole blood and plasma samples were harvested. Tissue samples were washed with 0.9% sodium chloride solution to remove the residual blood or contents, blotted on a filter paper, and stored at −70°C prior to the analysis.
Protein precipitation was selected for the pretreatment of both the plasma and the tissue homogenate prepared after thawing at room temperature, cut into pieces, and homogenized with a quintuple methanol–water mixture (1:1, v/v) for each tissue sample.
Briefly as follows, an aliquot of 25-μL plasma or tissue homogenate was spiked with 100 μL of internal standard solution (1 μg/mL for plasma, 0.2 μg/mL for tissue homogenate) and 300 μL of methanol added and vortex mixed for 60 s. The mixture was then centrifuged at 14,000 rpm at 4°C for 5.0 min, and the supernatant was diluted with methanol–water (4:1, v/v) in a ratio of 1:9 for the plasma or 1:1 for the tissue homogenate, and 5 μL of the resulting solution was injected for the LC-MS/MS analysis.
After oral administration of 40 mg/kg SHR9146, samples in different tissues at predetermined time points (pre-drug administration, post-drug administration at 1, 3, 6, and 24 h) were collected and prepared for the analysis. The drug concentrations of SHR9146 (μg/g or μg/mL) were determined for each mouse, and the mean and standard deviation were further obtained (Table S7).

[1] = kidney, Mean (n=3), read-out: SHR9146 concentration in Kidney
[2] = liver, Mean (n=3), read-out: SHR9146 concentration in Liver
[3] = lung, Mean (n=3), read-out: SHR9146 concentration in Lung
[4] = ovary, Mean (n=3), read-out: SHR9146 concentration in Ovary
[5] = pancreas, Mean (n=3), read-out: SHR9146 concentration in Pancreas
[6] = plasma, Mean (n=3), read-out: SHR9146 concentration in Plasma
[7] = skeletal muscle, Mean (n=3), read-out: SHR9146 concentration in Skeletal muscle
[8] = skin, Mean (n=3), read-out: SHR9146 concentration in Skin
[9] = small intestine, Mean (n=3), read-out: SHR9146 concentration in Small intestine
[10] = spleen, Mean (n=3), read-out: SHR9146 concentration in Spleen
[11] = stomach, Mean (n=3), read-out: SHR9146 concentration in Stomach
[12] = stomach, individual mice, read-out: SHR9146 concentration in Stomach
[13] = thyroid gland, Mean (n=3), read-out: SHR9146 concentration in thyroid gland
[14] = uterus, Mean (n=3), read-out: SHR9146 concentration in Uterus
[15] = whole blood, Mean (n=3), read-out: SHR9146 concentration in Whole blood

concentration at 1 h (kidney, 1 h, individual mice, read-out: SHR9146 concentration in Kidney): 13100 ng/g
concentration at 3 h [1]: 12700 ng/g
concentration at 6 h [1]: 1430 ng/g
concentration at 1 h (liver, 1 h, Mean (n=3), read-out: SHR9146 concentration in Liver): 24300 ng/g
concentration at 1 h (liver, 1 h, individual mice, read-out: SHR9146 concentration in Liver): 22800 ng/g
concentration at 3 h [2]: 19800 ng/g
concentration at 6 h [2]: 1950 ng/g
concentration at 24 h [2]: 37 ng/g
concentration at 24 h (liver, individual mice, read-out: SHR9146 concentration in Liver): 54 ng/g
concentration at 1 h (lung, 1 h, Mean (n=3), read-out: SHR9146 concentration in Lung): 16300 ng/g
concentration at 1 h (lung, 1 h, individual mice, read-out: SHR9146 concentration in Lung): 13600 ng/g
concentration at 3 h [3]: 25800 ng/g
concentration at 6 h [3]: 1380 ng/g
concentration at 24 h [3]: 165 ng/g
concentration at 24 h (lung, individual mice, read-out: SHR9146 concentration in Lung): 154 ng/g
concentration at 1 h (ovary, 1 h, Mean (n=3), read-out: SHR9146 concentration in Ovary): 18300 ng/g
concentration at 1 h (ovary, 1 h, individual mice, read-out: SHR9146 concentration in Ovary): 17000 ng/g
concentration at 3 h [4]: 12700 ng/g
concentration at 6 h [4]: 704 ng/g
concentration at 1 h (pancreas, 1 h, Mean (n=3), read-out: SHR9146 concentration in Pancreas): 18000 ng/g
concentration at 1 h (pancreas, 1 h, individual mice, read-out: SHR9146 concentration in Pancreas): 15900 ng/g
concentration at 3 h [5]: 12500 ng/g
concentration at 6 h [5]: 638 ng/g
concentration at 1 h (plasma, 1 h, Mean (n=3), read-out: SHR9146 concentration in Plasma): 13100 ng/mL
concentration at 1 h (plasma, 1 h, individual mice, read-out: SHR9146 concentration in Plasma): 11800 ng/mL
concentration at 3 h [6]: 9070 ng/mL
concentration at 6 h [6]: 471 ng/mL
concentration at 1 h (skeletal muscle, 1 h, Mean (n=3), read-out: SHR9146 concentration in Skeletal muscle): 7800 ng/g
concentration at 1 h (skeletal muscle, 1 h, individual mice, read-out: SHR9146 concentration in Skeletal muscle): 6440 ng/g
concentration at 3 h [7]: 5910 ng/g
concentration at 6 h [7]: 294 ng/g
concentration at 1 h (skin, 1 h, Mean (n=3), read-out: SHR9146 concentration in Skin): 11100 ng/g
concentration at 1 h (skin, 1 h, individual mice, read-out: SHR9146 concentration in Skin): 9600 ng/g
concentration at 3 h [8]: 7700 ng/g
concentration at 6 h [8]: 498 ng/g
concentration at 1 h (small intestine, 1 h, Mean (n=3), read-out: SHR9146 concentration in Small intestine): 21600 ng/g
concentration at 1 h (small intestine, 1 h, individual mice, read-out: SHR9146 concentration in Small intestine): 19000 ng/g
concentration at 3 h [9]: 16400 ng/g
concentration at 3 h (small intestine, individual mice, read-out: SHR9146 concentration in Small intestine): 14600 ng/g
concentration at 6 h [9]: 832 ng/g
concentration at 1 h (spleen, 1 h, Mean (n=3), read-out: SHR9146 concentration in Spleen): 6700 ng/g
concentration at 1 h (spleen, 1 h, individual mice, read-out: SHR9146 concentration in Spleen): 6190 ng/g
concentration at 3 h [10]: 4740 ng/g
concentration at 6 h [10]: 241 ng/g
concentration at 1 h (stomach, 1 h, Mean (n=3), read-out: SHR9146 concentration in Stomach): 27800 ng/g
concentration at 1 h (stomach, 1 h, individual mice, read-out: SHR9146 concentration in Stomach): 27400 ng/g
concentration at 3 h [11]: 27200 ng/g
concentration at 3 h [12]: 29000 ng/g
concentration at 6 h [11]: 3870 ng/g
concentration at 24 h [11]: 848 ng/g
concentration at 24 h [12]: 782 ng/g
concentration at 1 h (thyroid gland, 1 h, Mean (n=3), read-out: SHR9146 concentration in thyroid gland): 9550 ng/g
concentration at 1 h (thyroid gland, 1 h, individual mice, read-out: SHR9146 concentration in thyroid gland): 8340 ng/g
concentration at 3 h [13]: 6940 ng/g
concentration at 6 h [13]: 378 ng/g
concentration at 1 h (uterus, 1 h, Mean (n=3), read-out: SHR9146 concentration in Uterus): 10700 ng/g
concentration at 1 h (uterus, 1 h, individual mice, read-out: SHR9146 concentration in Uterus): 9740 ng/g
concentration at 3 h [14]: 6040 ng/g
concentration at 6 h [14]: 363 ng/g
concentration at 1 h (whole blood, 1 h, Mean (n=3), read-out: SHR9146 concentration in Whole blood): 8660 ng/mL
concentration at 1 h (whole blood, 1 h, individual mice, read-out: SHR9146 concentration in Whole blood): 7360 ng/mL
concentration at 3 h [15]: 6190 ng/mL
concentration at 6 h [15]: 298 ng/mL
SHR9146 concentration in Bladder (male, 1 h, individual mice): 13.766 µg/g and 11.095 µg/g
SHR9146 concentration in Kidney (male, 1 h, individual mice): 15.501 µg/g and 7.908 µg/g
SHR9146 concentration in Liver (male, 1 h, individual mice): 23.893 µg/g and 14.099 µg/g
SHR9146 concentration in Lung (male, 1 h, individual mice): 16.090 µg/g and 8.210 µg/g
SMILES: OCCn1cc(-c2ccc(N3CCC([C@H]4c5c(F)cccc5-c5cncn54)CC3)cc2)cn1 [SHR9146]
